From ChEMBL document CHEMBL1129013, “Benzopyran selective estrogen receptor modulators (SERMs): Pharmacological effects and structural correlation with raloxifene” (1996)

Legend:
Rattus norvegicus [1] = assay: Reduction in uterine weight in rat model at dose 0.1 mg/kg (p.o.); assay type: functional; conditions: route oral
Rattus norvegicus [2] = assay: Reduction in body weight in rat model at dose 0.1 mg/kg (p.o.); assay type: functional; conditions: route oral
Rattus norvegicus [3] = assay: Reduction in serum cholesterol in rat model at dose 0.1 mg/kg (p.o.); assay type: functional, organism-based; design: dose 0.1 mg/kg
Rattus norvegicus [4] = assay: Reduction in uterine weight in rat model at dose 0.01 mg/kg (p.o.); assay type: functional; conditions: route oral
Rattus norvegicus [5] = assay: Reduction in serum cholesterol in rat model at dose 1.0 mg/kg (p.o.); assay type: functional, organism-based; design: dose 1 mg/kg
Rattus norvegicus [6] = assay: Reduction in body weight in rat model at dose 10.0 mg/kg (p.o.); assay type: functional; conditions: route oral
Rattus norvegicus [7] = assay: Reduction in body weight in rat model at dose 1.0 mg/kg (p.o.); assay type: functional; conditions: route oral
Rattus norvegicus [8] = assay: Reduction in uterine weight in rat model at dose 1.0 mg/kg (p.o.); assay type: functional; conditions: route oral
Rattus norvegicus [9] = assay: Reduction in uterine weight in rat model at dose 10.0 mg/kg (p.o.); assay type: functional; conditions: route oral
Rattus norvegicus [10] = assay: Reduction in serum cholesterol in rat model at dose 10.0 mg/kg (p.o.); assay type: functional, organism-based; design: dose 10 mg/kg
Rattus norvegicus [11] = assay: Reduction in serum cholesterol in rat model at dose 0.01 mg/kg (p.o.); assay type: functional, organism-based; design: dose 0.01 mg/kg
Rattus norvegicus [12] = assay: Reduction in body weight in rat model at dose 0.01 mg/kg (p.o.); assay type: functional; conditions: route oral

SMILES	Uterine weight (Rattus norvegicus [1]) [mg]	Body weight (Rattus norvegicus [2]) [g]	Serum cholesterol (Rattus norvegicus [3]) [mg/dL]	Uterine weight (Rattus norvegicus [4]) [mg]	Serum cholesterol (Rattus norvegicus [5]) [mg/dL]	Body weight (Rattus norvegicus [6]) [g]	Body weight (Rattus norvegicus [7]) [g]	Uterine weight (Rattus norvegicus [8]) [mg]	Uterine weight (Rattus norvegicus [9]) [mg]	Serum cholesterol (Rattus norvegicus [10]) [mg/dL]	Serum cholesterol (Rattus norvegicus [11]) [mg/dL]	Body weight (Rattus norvegicus [12]) [g]
C#C[C@]1(O)CC[C@H]2[C@@H]3CCc4cc(O)ccc4[C@H]3CC[C@@]21C [ETHINYL ESTRADIOL]	319	274	37.1									
Oc1ccc(C2=Cc3ccc(O)cc3OC2c2ccc(OCCN3CCCCC3)cc2)cc1 (configuration not stated)	132.2	314	69.3	105.7	52.6	284	287	151	124.2	53	92.1	334
CC1=C(c2ccc(O)cc2)C(c2ccc(OCCN3CCCCC3)cc2)Oc2cc(O)ccc21 (configuration not stated)	160.2	281	69.8	128.2	42.3	302	295	134.2	135.2	57.4	79	306
